Like-named read-outs stand apart in the source and are kept apart here. Each block holds one molecule with its values, some of them ahead of it. Bridge positions count the residues as written; N and C are the ends. Square brackets hold non-standard residues; d marks the D form. Peptide text beside a SMILES is read from it. Cha = N[C@@H](CC1CCCCC1)C(=O)O; Orn = NCCC[C@H](N)C(=O)O
Assays:
human UTR2 receptor [1] = target: T1, human UTR2 receptor (Homo sapiens, UniProt Q9UKP6); assay: Ca2+ assay: UTR2 receptor-agonizing and antagonizing activity (calcium mobilization, Flexstation); type: cell-based
T1 construct: expressed in transfected cells; host or cells: mouse pre-B cell line 300-19
T1 sequence (Q9UKP6 1-389): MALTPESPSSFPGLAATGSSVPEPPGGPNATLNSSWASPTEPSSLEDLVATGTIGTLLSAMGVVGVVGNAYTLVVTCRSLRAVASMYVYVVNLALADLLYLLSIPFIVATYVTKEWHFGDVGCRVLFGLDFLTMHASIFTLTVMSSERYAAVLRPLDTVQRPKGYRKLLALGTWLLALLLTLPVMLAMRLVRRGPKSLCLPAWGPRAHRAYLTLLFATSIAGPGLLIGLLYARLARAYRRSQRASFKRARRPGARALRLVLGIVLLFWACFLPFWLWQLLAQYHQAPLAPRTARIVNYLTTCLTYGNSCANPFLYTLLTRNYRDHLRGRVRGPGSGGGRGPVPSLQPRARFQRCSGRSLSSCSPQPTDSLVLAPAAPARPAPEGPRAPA
From the text: 2.3. Ca^2+− Assay: UTR2 Receptor-Agonizing and Antagonizing Activity of the Peptides
The mouse pre-B cell line 300-19 was stably transfected with the cDNA encoding the human UTR2 receptor (GenBank Acc# NM_018949), and expression was confirmed with a positive calcium signal in response to human urotensin (Sigma Aldrich). Increases in intracellular calcium were monitored using a Flexstation 384 (Molecular Devices, Sunnyvale, Calif.). The cells were batch loaded with the Calcium 4 Assay kit (Molecular Devices) in assay buffer (Hanks Balanced salt solution, HBSS, 20 mM HEPES, pH 7.4, 0.1% BSA) for 1 h at room temperature and labeled cells were dispensed into either black 96 well or 384 well assay plates (Greiner). Calcium mobilization induced by urotensin or test compounds was measured in the Flexstation 384 (excitation, 485 nm; emission, 525 nm) for 70 seconds. Agonist activity was determined by direct addition of ligand or peptides, while antagonists were identified by spiking the cells with test compounds prior to urotensin addition. A dose response curve (compound concentration versus % maximum response for urotensin) was determined for each active agonist and antagonist and was fitted to a four parameter logistic equation using SoftmaxPro 4.8 (Molecular Devices), from which EC50% and IC50% values were calculated.

in vitro [2] = type: cell-based; conditions: for GI50 at 48 h: human
Procedure: (§1) The cytotoxicity of the peptides to HELA cells (Acc57) and COS-7 cells (CRL-1651) was determined using the MTT reduction assay. Briefly, the method was as follows: 7000 HELA cells/well and 4500 COS-7 cells/well were seeded and grown in 96-well microtiter plates for 24 h at 37° C. at 5% CO2. Thereafter, time zero (Tz) was determined by MTT reduction (see below). The supernatant of the remaining wells was discarded, and fresh medium and compounds in serial dilutions (12.5, 25 and 50 μM, triplicates) were pipetted into the wells. After incubation of the cells for 48 h at 37° C. at 5% CO2 the supernatant was discarded again and 100 μL MTT reagent (0.5 mg/mL in RPMI1640 and DMEM, respectively)/well was added. Following incubation at 37° C. for 2 h the media were aspirated and the cells were spiked (100 μl isopropanol/well). The absorbance of the solubilized formazan was measured at 595 nm (OD595peptide). For each concentration averages were calculated from triplicates. The percentage of growth was calculated as follows: (OD595peptide-OD595Tz-OD595Empty well)/(OD595Tz-OD595Empty well)×100%. The GI50 (Growth Inhibition) concentrations were calculated for each peptide by using a trend line function for the concentrations (50, 25, 12.5 and 0 μM), the corresponding percentages and the value 50, (=TREND (C50:C0,%50:%0,50).

in vitro [3] = type: cell-based; conditions: for GI50 at 48 h: African green monkey
Procedure: as §1

[4] = tested on: human red blood cells (hRBC); type: cell-based; conditions: red cells of human, 1 h
Procedure: The peptides were tested for their hemolytic activity against human red blood cells (hRBC). Fresh hRBC were washed three times with phosphate buffered saline (PBS) and centrifuged for 10 min at 2000×g. Compounds (100 μM) were incubated with 20% hRBC (v/v) for 1 h at 37° C. The final erythrocyte concentration was approximately 0.9×10^9 cells/mL. A value of 0% and 100% cell lyses, respectively, was determined by incubation of hRBC in the presence of PBS alone and 0.1% Triton X-100 in H2O, respectively. The samples were centrifuged, the supernatants were 20-fold diluted in PBS buffer and the optical densities (OD) were measured at 540 nm. The 100% lyses value (OD540H2O) gave an OD540 of approximately 1.3-1.8. Percent hemolysis was calculated as follows: […]

[5] = Plasma stability, human plasma; type: in vitro ADME; conditions: 37° C., sampled up to 240 min
Procedure: (§2) The stability of the peptides in human and mouse plasma was determined by applying the following method: 315 μl/deep well of freshly thawed human plasma (Basler Blutspende-dienst) and mouse plasma (Harlan Sera-Lab, UK), respectively, were spiked with 35 μl/well of compound in PBS (100 μM, triplicate) and incubated at 37° C. At t=0, 15, 30, 60, 120 and 240 min aliquots of 50 μl were transferred to filtration plate wells containing 150 μl/well of acetonitrile. Following shaking for 2 min the occurred suspensions were filtrated by vacuum and finally. 100 μl of each filtrate were transferred to a propylene microtiter plate, and analyzed by LC/MS as follows: Column: Waters, XBridge C18, mobile phases: (A) water+0.1% formic acid and (B) acetonitrile/water, 95/5 (v/v)+0.1% formic acid, gradient: 5%-100% (B) in 2 minutes, electrospray ionization, MRM detection (triple quadrupole). The peak areas were determined and triplicate values were averaged. The stability was expressed in percent of the initial value at t=0. (tx/t0×100). By using the TREND function of EXCEL (Microsoft Office 2003) T1/2 were determined.

[6] = Plasma stability, mouse plasma; type: in vitro ADME; conditions: 37° C., sampled up to 240 min
Procedure: as §2

human UTR2 receptor [7] = target: T2, human UTR2 receptor (human, UniProt Q9UKP6 1-389); assay: cell-based or functional assay
T2 sequence (looked up): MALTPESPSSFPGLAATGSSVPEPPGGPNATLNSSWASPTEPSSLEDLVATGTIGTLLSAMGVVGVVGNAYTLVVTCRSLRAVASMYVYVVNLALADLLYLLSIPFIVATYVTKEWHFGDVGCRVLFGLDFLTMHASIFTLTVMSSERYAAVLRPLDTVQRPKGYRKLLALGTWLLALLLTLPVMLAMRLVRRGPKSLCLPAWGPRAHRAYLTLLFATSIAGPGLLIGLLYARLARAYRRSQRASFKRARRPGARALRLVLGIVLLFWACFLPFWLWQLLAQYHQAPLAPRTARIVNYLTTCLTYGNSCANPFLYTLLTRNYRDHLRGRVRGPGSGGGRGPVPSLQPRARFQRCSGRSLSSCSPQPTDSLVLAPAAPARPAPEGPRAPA

Molecule: CC(C)[C@@H]1NC(=O)[C@@H]2CSSC[C@H](NC(=O)[C@H](CC(=O)O)NC(=O)[C@@H]3CCCN3C(=O)[C@H]3CCCN3C1=O)C(=O)N[C@@H](Cc1ccccc1)C(=O)N[C@@H](Cc1c[nH]c3ccccc13)C(=O)N[C@@H](CCCCN)C(=O)N[C@@H](Cc1ccc(O)cc1)C(=O)N2 [compound 31]
- EC50 (human UTR2 receptor [1]): < 0.002 µM
- GI50 (in vitro [2]): > 50 µM
- GI50 (in vitro [3]): > 50 µM
- Hemolysis at 100 μM [%] [4]: 0%
- Plasmastability human pl. T1/2 [5]: 4 h
- Plasmastability mouse pl. T1/2 [6]: 4 h

Molecule: CC(C)[C@@H]1NC(=O)[C@@H]2CSSC[C@H](NC(=O)[C@H](CC(=O)O)NC(=O)[C@@H]3CCCN3C(=O)[C@H]3CCCN3C1=O)C(=O)N[C@@H](Cc1ccccc1)C(=O)N[C@H](Cc1c[nH]c3ccccc13)C(=O)N[C@@H](CCCN)C(=O)N[C@@H](Cc1ccc(O)cc1)C(=O)N2 [compound 32] (cyclo(DCF[dW][Orn]YCV[dP]P); disulfide 2-7)
- GI50 at 48 h (in vitro [2]): > 50 µM
- GI50 at 48 h (in vitro [3]): > 50 µM
- Hemolysis at 100 μM [%] [4]: 0%
- Plasmastability human pl. T1/2 [5]: 4 h
- Plasmastability mouse pl. T1/2 [6]: 4 h

Molecule: CC(C)[C@@H]1NC(=O)[C@@H]2CSSC[C@H](NC(=O)[C@H](CC(=O)O)NC(=O)[C@@H]3CCCN3C(=O)[C@H]3CCCN3C1=O)C(=O)N[C@@H](Cc1ccccc1)C(=O)N[C@H](Cc1c[nH]c3ccccc13)C(=O)N[C@@H](CCCCN)C(=O)N[C@@H](Cc1ccc(O)cc1)C(=O)N2 [compound 34]
- EC50 (human UTR2 receptor [1]): < 0.002 µM
- GI50 (in vitro [2]): > 50 µM
- GI50 (in vitro [3]): > 50 µM
- Hemolysis at 100 μM [%] [4]: 0%
- Plasmastability human pl. T1/2 [5]: 4 h
- Plasmastability mouse pl. T1/2 [6]: 4 h

Molecule: CC(C)C[C@@H]1NC(=O)[C@@H]2CSSC[C@H](NC(=O)[C@H](CC(=O)O)NC(=O)[C@@H]3CCCN3C(=O)[C@H]3CCCN3C1=O)C(=O)N[C@@H](Cc1ccc(O)cc1)C(=O)N[C@@H](Cc1c[nH]c3ccccc13)C(=O)N[C@@H](CCCCN)C(=O)N[C@@H](Cc1ccc(O)cc1)C(=O)N2 [compound 33]
- EC50 (human UTR2 receptor [1]): < 0.002 µM
- GI50 (in vitro [2]): > 50 µM
- GI50 (in vitro [3]): > 50 µM
- Hemolysis at 100 μM [%] [4]: 0%
- Plasmastability human pl. T1/2 [5]: 4 h
- Plasmastability mouse pl. T1/2 [6]: 4 h

Molecule: CC(C)C[C@@H]1NC(=O)[C@@H]2CSSC[C@H](NC(=O)[C@H](CC(=O)O)NC(=O)[C@@H]3CCCN3C(=O)[C@@H](CCC(=O)O)NC1=O)C(=O)N[C@@H](Cc1ccccc1)C(=O)N[C@@H](Cc1c[nH]c3ccccc13)C(=O)N[C@@H](CCCCN)C(=O)N[C@@H](Cc1ccc(O)cc1)C(=O)N2 [compound 30]
- EC50 (human UTR2 receptor [1]): < 0.002 µM
- GI50 (in vitro [2]): > 50 µM
- GI50 (in vitro [3]): > 50 µM
- Hemolysis at 100 μM [%] [4]: 0%
- Plasmastability human pl. T1/2 [5]: 4 h
- Plasmastability mouse pl. T1/2 [6]: 4 h

Molecule: NCCCC[C@@H]1NC(=O)[C@H](Cc2c[nH]c3ccccc23)NC(=O)[C@H](Cc2ccccc2)NC(=O)[C@@H]2CSSC[C@H](NC(=O)[C@H](Cc3ccc(O)cc3)NC1=O)C(=O)N[C@@H](CC1CCCCC1)C(=O)N1CCC[C@@H]1C(=O)N1CCC[C@H]1C(=O)N[C@@H](CC(=O)O)C(=O)N2 [compound 35] (cyclo(DCFWKYC[Cha][dP]P); disulfide 2-7)
- GI50 at 48 h (in vitro [2]): > 50 µM
- GI50 at 48 h (in vitro [3]): > 50 µM
- Hemolysis at 100 μM [%] [4]: 0%
- Plasmastability human pl. T1/2 [5]: 4 h
- Plasmastability mouse pl. T1/2 [6]: 4 h

Molecule: CC(C)C[C@@H]1NC(=O)[C@@H]2CSSC[C@H](NC(=O)[C@H](CC(=O)O)NC(=O)[C@@H]3CCCN3C(=O)[C@@H](CO)NC1=O)C(=O)N[C@@H](Cc1ccccc1)C(=O)N[C@@H](Cc1c[nH]c3ccccc13)C(=O)N[C@@H](CCCCN)C(=O)N[C@@H](Cc1ccc(O)cc1)C(=O)N2 [Ex. 28]
- EC50 (human UTR2 receptor [1]): < 0.002 µM
- GI50 (in vitro [2]): > 50 µM
- GI50 (in vitro [3]): > 50 µM
- Hemolysis at 100 μM [%] [4]: 0%
- Plasmastability human pl. T1/2 [5]: 4 h
- Plasmastability mouse pl. T1/2 [6]: 4 h

- EC50% (Ca2+ assay, agonist activity) (human UTR2 receptor [7]): < 0.002 µM
Molecule: cyclo(DCFWKYCV[dP]P) (disulfide 2-7) [Ex. 31]

- EC50% (Ca2+ assay, agonist activity) (human UTR2 receptor [7]): < 0.002 µM
B1: Ex. 30 (peptide)
peptide: cyclo(DCFWKYCL[dE]P)
modifications: disulfide 2-7
SMILES: CC(C)C[C@@H]1NC(=O)[C@@H]2CSSC[C@H](NC(=O)[C@H](CC(=O)O)NC(=O)[C@@H]3CCCN3C(=O)[C@@H](CCC(=O)O)NC1=O)C(=O)N[C@@H](Cc1ccccc1)C(=O)N[C@@H](Cc1c[nH]c3ccccc13)C(=O)N[C@@H](CCCCN)C(=O)N[C@@H](Cc1ccc(O)cc1)C(=O)N2

- EC50% (Ca2+ assay, agonist activity) (human UTR2 receptor [7]): < 0.002 µM
B2: Ex. 33 (peptide)
peptide: cyclo(DCYWKYCL[dP]P)
modifications: disulfide 2-7
SMILES: CC(C)C[C@@H]1NC(=O)[C@@H]2CSSC[C@H](NC(=O)[C@H](CC(=O)O)NC(=O)[C@@H]3CCCN3C(=O)[C@H]3CCCN3C1=O)C(=O)N[C@@H](Cc1ccc(O)cc1)C(=O)N[C@@H](Cc1c[nH]c3ccccc13)C(=O)N[C@@H](CCCCN)C(=O)N[C@@H](Cc1ccc(O)cc1)C(=O)N2

- EC50% (Ca2+ assay, agonist activity) (human UTR2 receptor [7]): < 0.002 µM
B3: Ex. 28 (peptide)
peptide: cyclo(DCFWKYCL[dS]P)
modifications: disulfide 2-7
SMILES: CC(C)C[C@@H]1NC(=O)[C@@H]2CSSC[C@H](NC(=O)[C@H](CC(=O)O)NC(=O)[C@@H]3CCCN3C(=O)[C@@H](CO)NC1=O)C(=O)N[C@@H](Cc1ccccc1)C(=O)N[C@@H](Cc1c[nH]c3ccccc13)C(=O)N[C@@H](CCCCN)C(=O)N[C@@H](Cc1ccc(O)cc1)C(=O)N2

- EC50% (Ca2+ assay, agonist activity) (human UTR2 receptor [7]): < 0.002 µM
Molecule: cyclo(DCF[dW]KYCV[dP]P) (disulfide 2-7) [Ex. 34]

— patent publication US20170369523A1, “TEMPLATE-FIXED BETA-HAIRPIN PEPTIDOMIMETICS THAT ARE LIGANDS FOR G-PROTEIN-COUPLED RECEPTORS (GPCRS) AND ARE MODULATORS OF TRANSCRIPTION FACTORS AND COACTIVATORS” (POLYPHOR AG, priority 2008, published 2017)
